Values of other authors in patent US20180271836A1, “TOPICAL NON-AQUEOUS PHARMACEUTICAL FORMULATIONS CONTAINING AN ALKYL SULFOXIDE FOR THE TREATMENT OF TOPICAL REFERENCE INFECTIONS” (priority 2012, published 2018).

pKa: 6.5
Structure (SMILES): Clc1ccc(COC(Cn2ccnc2)c2ccc(Cl)cc2Cl)c(Cl)c1 (stereo not shown) [miconazole]
